The results in this text go back to patent publication US20240308968A1, “FUNGICIDAL SUBSTITUTED HETEROCYCLES” (FMC Corporation, priority 2021, published 2024).

What all share (assay type): in vivo
One assay concerns Zymoseptoria tritici. Kind of assay: Test A: preventive spray on wheat seedlings, wheat leaf blotch disease rating. As to conditions: 100 = 100% disease control, 0 = no control; for Test A disease control rating / pest or weed control at 50 ppm: 50 ppm; for pest or weed control at 50 ppm / pest or weed control at 250 ppm: Zymoseptoria tritici, 456 h. The source says:
(§1) General protocol for preparing test suspensions for Tests A-F: the test compounds were first dissolved in acetone in an amount equal to 3% of the final volume and then suspended at the desired concentration (in ppm) in acetone and purified water (50/50 mix by volume) containing 50 to 250 ppm of the surfactant PEG400 (polyhydric alcohol esters). The resulting test suspensions were then used in Tests A-F.
The test solution was sprayed to the point of run-off on wheat seedlings. The following day the seedlings were inoculated with a spore suspension of Zymoseptoria tritici (the causal agent of wheat leaf blotch) and incubated in a saturated atmosphere at 24° C. for 48 h, and then moved to a growth chamber at 20° C. for 17 days, after which time disease ratings were made. […]

Assay [1] deals with Puccinia recondita f. sp. Tritici. The assay is described as follows: Test B: preventive spray on wheat seedlings, wheat leaf rust disease rating. The settings on record: 100 = 100% disease control, 0 = no control; for Test B disease control rating / pest or weed control at 50 ppm: 50 ppm; for pest or weed control at 50 ppm / pest or weed control at 250 ppm: Puccinia recondita, 192 h.
Description: as §1
The test solution was sprayed to the point of run-off on wheat seedlings. The following day the seedlings were inoculated with a spore suspension of Puccinia recondita f. sp. Tritici (the causal agent of wheat leaf rust) and incubated in a saturated atmosphere at 20° C. for 24 h, and then moved to a growth chamber at 20° C. for 7 days, after which time disease ratings were made.
(§2) The test suspension was sprayed to the point of run-off on tomato seedlings. The following day the seedlings were inoculated with a spore suspension of Alternaria solani (the causal agent of tomato early blight) and incubated in a saturated atmosphere at 27° C. for 48 h, and then moved to a growth chamber at 20° C. for 3 days, after which time visual disease ratings were made. A rating of 100 indicates 100% disease control and a rating of 0 indicates no disease control (relative to the controls). A dash (-) indicates the compound was not tested.

Assay [2] relates to Blumeria graminis f. sp. Tritici. Kind of assay: Test C: preventive spray on wheat seedlings, wheat powdery mildew disease rating. As to conditions: 100 = 100% disease control, 0 = no control; for Test C disease control rating / pest or weed control at 50 ppm: 50 ppm; for pest or weed control at 50 ppm / pest or weed control at 250 ppm: Blumeria graminis, 192 h.
Description: as §1
The test suspension was sprayed to the point of run-off on wheat seedlings. The following day the seedlings were inoculated with a spore dust of Blumeria graminis f. sp. Tritici, (also known as Erysiphe graminis f. sp. Tritici, the causal agent of wheat powdery mildew) and incubated in a growth chamber at 20° C. for 8 days, after which time visual disease ratings were made.
as §2

Another assay concerns Phakopsora pachyrhizi. Kind of assay: Test D: preventive spray on soybean seedlings, Asian soybean rust disease rating. The settings on record: 100 = 100% disease control, 0 = no control; for Test D disease control rating / pest or weed control at 50 ppm: 50 ppm; for pest or weed control at 50 ppm / pest or weed control at 250 ppm: Phakopsora pachyrhizi, 216 h.
Description: as §1
The test solution was sprayed to the point of run-off on soybean seedlings. The following day the seedlings were inoculated with a spore suspension of Phakopsora pachyrhizi (the causal agent of Asian soybean rust) and incubated in a saturated atmosphere at 22° C. for 24 h and then moved to a growth chamber at 22° C. for 8 days, after which time visual disease ratings were made.
as §2

Another assay has as its system Botrytis cinerea. Kind of assay: Test E: preventive spray on tomato seedlings, tomato Botrytis disease rating. As to conditions: 100 = 100% disease control, 0 = no control; for Test E disease control rating / pest or weed control at 50 ppm: 50 ppm; for pest or weed control at 50 ppm / pest or weed control at 250 ppm: Botrytis cinerea, 120 h.
Description: as §1
The test suspension was sprayed to the point of run-off on tomato seedlings. The following day the seedlings were inoculated with a spore suspension of Botrytis cinerea (the causal agent of tomato Botrytis) and incubated in a saturated atmosphere at 20° C. for 48 h, and then moved to a growth chamber at 24° C. for 3 days, after which time visual disease ratings were made.
as §2

A further assay relates to Alternaria solani. Kind of assay: Test F: preventive spray on tomato seedlings, tomato early blight disease rating. The settings on record: 100 = 100% disease control, 0 = no control; for Test F disease control rating / pest or weed control at 50 ppm: 50 ppm; for pest or weed control at 50 ppm / pest or weed control at 250 ppm: Alternaria solani, 120 h.
Description: as §1, §2

As to `COc1ccc(Cl)c(-n2nc(C)c(=O)c(Cl)c2-c2ccc(F)cc2Cl)c1` [Compound 123, 5-chloro-1-(2-chloro-5-methoxyphenyl)-6-(2-chloro-4-fluorophenyl)-3-methyl-4(1)-pyridazinone], the “Test A disease control rating” value in the assay on Zymoseptoria tritici is listed as 100%. Further, the “Test B disease control rating” value in assay [1] came out at 100%. Moreover, in assay [2], the “Test C disease control rating” value amounted to 100%. Also, in the assay on Phakopsora pachyrhizi, the “Test D disease control rating” value stood at 100%. The “Test E disease control rating” value in the assay on Botrytis cinerea is 99%. Moreover, the “Test F disease control rating” value with Alternaria solani was found to be 100%.
As for `COc1cc(OC)c(Cl)c(-n2nc(C#N)c(=O)c(C)c2-c2ccc(F)cc2Cl)c1` [Compound 83], in the assay with Zymoseptoria tritici, the “Test A disease control rating” value came to 99%. The “Test B disease control rating” value in assay [1] came to 100%. In addition, the “Test C disease control rating” value in assay [2] is given as 98%. Further, in the assay with Phakopsora pachyrhizi, the “Test D disease control rating” value amounted to 100%. Moreover, the “Test E disease control rating” value in the assay with Botrytis cinerea amounted to 94%. For the same compound, the “Test F disease control rating” value in the assay with Alternaria solani amounted to 100%.
Take `Cc1c(-c2ccc(F)cc2Cl)c(-c2ccc(Br)s2)nn(C)c1=O` [Compound 17]: in the assay on Zymoseptoria tritici, the “Test A disease control rating” value came out at 99%. Further, the “Test B disease control rating” value in assay [1] came out at 68%. Moreover, the “Test C disease control rating” value in assay [2] is on record as 56%. Besides, the “Test D disease control rating” value in the assay on Phakopsora pachyrhizi worked out at 12%. Also, the “Test E disease control rating” value in the assay with Botrytis cinerea worked out at 39%. Moreover, in the assay with Alternaria solani, the “Test F disease control rating” value is given as 0%.
Regarding `COc1cc(OC)c(Cl)c(-n2nc(CF)c(=O)c(C)c2-c2ccc(F)cc2Cl)c1` [Compound 85], the “Test A disease control rating” value with Zymoseptoria tritici was determined as 100%. In addition, in assay [1], the “Test B disease control rating” value is listed as 100%. Besides, the “Test C disease control rating” value in assay [2] worked out at 99%. Further, the “Test D disease control rating” value in the assay with Phakopsora pachyrhizi is reported as 100%. The “Test E disease control rating” value in the assay with Botrytis cinerea is 93%. Besides, in the assay on Alternaria solani, the “Test F disease control rating” value came to 100%.
In the case of `COc1ccc(Cl)c(-n2nc(Br)c(=O)c(Cl)c2-c2ccc(F)cc2Cl)c1` [Compound 101], in the assay with Zymoseptoria tritici, the “Test A disease control rating” value came out at 98%. The “Test B disease control rating” value in assay [1] was determined as 99%. In assay [2], the “Test C disease control rating” value stood at 89%. In addition, the “Test D disease control rating” value with Phakopsora pachyrhizi is given as 99%. The “Test E disease control rating” value in the assay on Botrytis cinerea worked out at 98%. The “Test F disease control rating” value in the assay with Alternaria solani turned out to be 98%.
For the compound `Cc1cnn(-c2nn(C)c(=O)c(C)c2-c2ccc(F)cc2Cl)c1` [Compound 11], in the assay with Zymoseptoria tritici, the “Test A disease control rating” value stood at 70%. Further, the “Test B disease control rating” value in assay [1] was 0%. Further, in assay [2], the “Test C disease control rating” value is 97%. For the same compound, the “Test D disease control rating” value in the assay on Phakopsora pachyrhizi is listed as 0%. In addition, in the assay on Botrytis cinerea, the “Test E disease control rating” value was 91%. In addition, the “Test F disease control rating” value in the assay on Alternaria solani came out at 24%.
Broadly, the pest or weed control is the degree to which the test organism was suppressed or injured, in per cent. A higher pest or weed control goes with strong suppression. For `Cc1c(-c2ccc(F)cc2Cl)c(-c2ccsc2Cl)nn(C)c1=O` [Compound 7, 5-(2-chloro-4-fluorophenyl)-6-(2-chloro-3-thienyl)-2,4-dimethyl-3(2H)-pyridazinone], the pest or weed control at 50 ppm in the assay on Zymoseptoria tritici turned out to be 99%; in assay [1], 100%; in assay [2], 99%; in the assay with Phakopsora pachyrhizi, 100%; with Botrytis cinerea, 97%; in the assay with Alternaria solani, 99%.
For `COc1ccc(Cl)c(-c2nc(C)nc(C)c2-c2ccc(F)cc2Cl)c1` [Compound 50, 5-(2-chloro-4-fluorophenyl)-4-(2-chloro-5-methoxyphenyl)-2,6-dimethylpyrimidine], the pest or weed control at 250 ppm came to 100% with Zymoseptoria tritici; 100% in assay [1]; 100% in assay [2]; 100% in the assay on Phakopsora pachyrhizi; 99% with Botrytis cinerea; 100% with Alternaria solani.
Consider `CCn1c(-c2ccc(F)cc2Cl)c(-c2cc(OC)cc(OC)c2)cc(C#N)c1=O` [Compound 155], for which, in the assay with Zymoseptoria tritici, the “Test A disease control rating” value amounted to 8%. Further, the “Test B disease control rating” value in assay [1] is on record as 89%. The “Test C disease control rating” value in assay [2] amounted to 0%. In the assay on Phakopsora pachyrhizi, the “Test D disease control rating” value is 0%. Besides, the “Test E disease control rating” value in the assay with Botrytis cinerea is 92%. For the same compound, the “Test F disease control rating” value with Alternaria solani came out at 0%.
As for `COC(=O)c1nn(-c2cc(OC)cc(OC)c2)c(-c2ccc(F)cc2F)c(C)c1=O` [Compound 24], in the assay with Zymoseptoria tritici, the “Test A disease control rating” value amounted to 8%. For the same compound, the “Test B disease control rating” value in assay [1] stood at 0%. The “Test C disease control rating” value in assay [2] is given as 0%. The “Test D disease control rating” value in the assay on Phakopsora pachyrhizi was 0%. Further, the “Test E disease control rating” value in the assay on Botrytis cinerea was 0%. For the same compound, in the assay on Alternaria solani, the “Test F disease control rating” value is reported as 0%.
As for `Cc1ccncc1-c1nn(C)c(=O)c(Cl)c1-c1ccc(F)cc1Cl` [Compound 4, 4-chloro-5-(2-chloro-4-fluorophenyl)-2-methyl-6-(4-methyl-3-pyridinyl)-3(2H)-pyridazinone], the pest or weed control at 50 ppm with Zymoseptoria tritici was 100%; in assay [1], 89%; in assay [2] it was 89%; in the assay with Phakopsora pachyrhizi it was 38%; in the assay with Botrytis cinerea, 65%; in the assay on Alternaria solani it was 70%.
Turning to `COc1cc(OC)c(Br)c(-c2c(-c3ccc(F)cc3F)noc(=O)c2C)c1` [Compound 63], the “Test A disease control rating” value in the assay on Zymoseptoria tritici is listed as 100%. Moreover, the “Test B disease control rating” value in assay [1] was 100%. Also, the “Test C disease control rating” value in assay [2] was 56%. Further, in the assay with Phakopsora pachyrhizi, the “Test D disease control rating” value came out at 0%. Also, the “Test E disease control rating” value in the assay on Botrytis cinerea worked out at 97%. For the same compound, the “Test F disease control rating” value with Alternaria solani was determined as 0%.
With `COc1cc(OC)c(Cl)c(-n2nc(CO)c(=O)c(C)c2-c2ccc(F)cc2F)c1` [Compound 30, 1-(2-chloro-3,5-dimethoxyphenyl)-6-(2,4-difluorophenyl)-3-(hydroxymethyl)-5-methyl-4(1H)-pyridazinone], the pest or weed control at 50 ppm turned out to be 63% with Zymoseptoria tritici; 100% in assay [1]; 98% in assay [2]; 92% in the assay with Phakopsora pachyrhizi; 94% in the assay with Botrytis cinerea; 99% with Alternaria solani.
For the compound `COc1cc(OC)c(Cl)c(-c2nc(Cl)nc(C)c2-c2c(F)cccc2F)c1` [Compound 48, 2-chloro-4-(2-chloro-3,5-dimethoxyphenyl)-5-(2,6-difluorophenyl)-6-methylpyrimidine], the pest or weed control at 250 ppm in the assay with Zymoseptoria tritici was determined as 100%; in assay [1], 100%; in assay [2], 100%; in the assay with Phakopsora pachyrhizi it was 100%; in the assay on Botrytis cinerea, 99%; in the assay on Alternaria solani, 100%.
For the compound `Cn1nc(-c2cccnc2)c(-c2c(F)cccc2F)cc1=O` [Compound 2], in the assay on Zymoseptoria tritici, the “Test A disease control rating” value is 0%. Moreover, the “Test B disease control rating” value in assay [1] is reported as 0%. The “Test C disease control rating” value in assay [2] worked out at 0%. Besides, in the assay on Phakopsora pachyrhizi, the “Test D disease control rating” value amounted to 0%. Besides, the “Test E disease control rating” value with Botrytis cinerea is given as 0%. In addition, in the assay on Alternaria solani, the “Test F disease control rating” value turned out to be 0%.
Regarding `Cc1cnn(-c2nn(C)c(=O)c(C)c2-c2ccccc2Cl)c1` [Compound 12], the “Test A disease control rating” value in the assay with Zymoseptoria tritici is listed as 0%. In addition, the “Test B disease control rating” value in assay [1] worked out at 0%. Also, the “Test C disease control rating” value in assay [2] amounted to 0%. Besides, in the assay on Phakopsora pachyrhizi, the “Test D disease control rating” value is on record as 17%. Also, in the assay on Botrytis cinerea, the “Test E disease control rating” value came to 0%. For the same compound, the “Test F disease control rating” value in the assay with Alternaria solani is 15%.
